# Where a SMILES comes first, the peptide text is derived from it.
# Target: T1, Group IIA purified human synovial sPLA2 (Homo sapiens, UniProt P14555)
# T1 construct: purchased Cayman, USA
# T1 sequence (P14555 21-144): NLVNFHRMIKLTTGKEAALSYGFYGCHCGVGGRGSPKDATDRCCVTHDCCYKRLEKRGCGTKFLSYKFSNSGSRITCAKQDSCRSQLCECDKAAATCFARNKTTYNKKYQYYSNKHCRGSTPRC
# Assay: In vitro inhibition of purified human synovial sPLA2, 3H-labelled E. coli membranes
# Assay type: biochemical
# Settings: for Mean % Inhibition / inhibition at 5 µM: fixed peptide concentration 5 μM
# [1] = 3H-labelled E. coli membranes as substrate
# [2] = purified human synovial sPLA2 (Cayman)
Compound,Mean % Inhibition,IC50 [1],further results
HVWDG [PIP (62–66)],n.s.,–,–
CC[C@H](C)[C@H](NC(=O)[C@H](CC(=O)O)NC(=O)[C@@H](NC(=O)[C@@H](N)CCCNC(=N)N)C(C)C)C(=O)N[C@@H](Cc1c[nH]cn1)C(=O)N[C@H](C(=O)N[C@@H](Cc1c[nH]c2ccccc12)C(=O)N[C@@H](CC(=O)O)C(=O)NCC(=O)N[C@H](C(=O)O)C(C)C)C(C)C [PIP (58–67)] (H-RVDIHVWDGV-OH; N-terminus and C-terminus assumed),–,3.67 µM,inhibition at 5 µM: 59.5%
"CC[C@H](C)[C@H](NC(=O)[C@H](CC(=O)O)NC(=O)[C@@H](N)C(C)C)C(=O)N[C@@H](Cc1cnc[nH]1)C(=O)N[C@H](C(=O)N[C@@H](Cc1c[nH]c2ccccc12)C(=O)N[C@@H](CC(=O)O)C(=O)NCC(=O)N[C@H](C(=O)N[C@H](C(=O)N[C@@H](CC(=O)O)C(=O)N[C@H](C(=O)N[C@@H](Cc1cnc[nH]1)C(=O)N[C@H](C(=O)N[C@@H](Cc1c[nH]c2ccccc12)C(=O)N[C@@H](CC(=O)O)C(=O)NCC(=O)N[C@H](C(=O)O)C(C)C)C(C)C)[C@@H](C)CC)C(C)C)C(C)C)C(C)C [PIP (59–67) dimer, VDIHVWDGV VDIHVWDGV] (H-VDIHVWDGVVDIHVWDGV-OH)",–,–,IC50 [2]: 1.19 µM
GRVDIHVWDGV [PIP (57–67)],14.22%,–,–
IHVWDGV [PIP (61–67)],n.s.,–,–
"CC[C@H](C)[C@H](NC(=O)[C@H](CCC(=O)O)NC(=O)[C@@H](N)C(C)C)C(=O)N[C@@H](Cc1c[nH]cn1)C(=O)N[C@H](C(=O)N[C@@H](Cc1c[nH]c2ccccc12)C(=O)N[C@@H](CCC(=O)O)C(=O)NCC(=O)N[C@H](C(=O)O)C(C)C)C(C)C [D60, 65E-PIP (59–67)] (H-VEIHVWEGV-OH; N-terminus and C-terminus assumed)",–,4.2 µM,–
LGRVDIHVWDGV [PIP (56–67)],34.21%,–,–
CC[C@H](C)[C@H](NC(=O)[C@H](CC(=O)O)NC(=O)[C@@H](N)C(C)C)C(=O)N[C@@H](Cc1c[nH]cn1)C(=O)N[C@H](C(=O)N[C@@H](Cc1c[nH]c2ccccc12)C(=O)N[C@@H](CC(=O)O)C(=O)NCC(=O)N[C@H](C(=O)O)C(C)C)C(C)C [PIP (59–67)] (H-VDIHVWDGV-OH; N-terminus and C-terminus assumed),–,–,IC50 [2]: 3.8 µM
CC[C@H](C)[C@H](NC(=O)[C@H](CC(=O)O)NC(=O)[C@@H](N)C(C)C)C(=O)N[C@@H](Cc1cnc[nH]1)C(=O)N[C@H](C(=O)N[C@@H](Cc1c[nH]c2ccccc12)C(=O)N[C@@H](CCC(=O)O)C(=O)NCC(=O)N[C@H](C(=O)O)C(C)C)C(C)C [D65E-PIP (59–67)] (H-VDIHVWEGV-OH),–,4.95 µM,–
CC[C@H](C)[C@H](NC(=O)[C@H](CC(=O)O)NC(=O)[C@@H](N)C(C)C)C(=O)N[C@@H](Cc1cnc[nH]1)C(=O)N[C@H](C(=O)N[C@@H](Cc1c[nH]c2ccccc12)C(=O)N[C@@H](C)C(=O)NCC(=O)N[C@H](C(=O)O)C(C)C)C(C)C [D65A-PIP (59–67)] (H-VDIHVWAGV-OH),–,5.45 µM,–
CC[C@H](C)[C@H](NC(=O)[C@H](CC(=O)O)NC(=O)[C@@H](N)C(C)C)C(=O)N[C@@H](Cc1cnc[nH]1)C(=O)N[C@H](C(=O)N[C@@H](Cc1c[nH]c2ccccc12)C(=O)N[C@@H](CO)C(=O)NCC(=O)N[C@H](C(=O)O)C(C)C)C(C)C [D65S-PIP (59–67)] (H-VDIHVWSGV-OH),–,5.25 µM,–
DIHVWDG [PIP (60–66)],n.s.,–,–
CC[C@H](C)[C@H](NC(=O)[C@@H](N)CC(=O)O)C(=O)N[C@@H](Cc1c[nH]cn1)C(=O)N[C@H](C(=O)N[C@@H](Cc1c[nH]c2ccccc12)C(=O)N[C@@H](CC(=O)O)C(=O)NCC(=O)N[C@H](C(=O)O)C(C)C)C(C)C [PIP (60–67)] (H-DIHVWDGV-OH; N-terminus and C-terminus assumed),–,5.75 µM,inhibition at 5 µM: 45.9%
IHVWDG [PIP (61–66)],n.s.,–,–

# From US7176281B2 (priority 2003, dated 2007)
